From patent US20140010806A1, “Treatment of Ocular Diseases” (priority 2012, published 2014)

Key:
[1] = system: experimental autoimmune encephalomyelitis (EAE); test: PLP-induced experimental autoimmune encephalomyelitis (EAE); assay type: in vivo, SJL mice; details: for course of EAE compared to vehicle-treated mice: 0.1 mg q.d. po from clinical onset to day 30 post immunization; for cumulative incidence of EAE or lethality: 0.1 mg q.d. po; for mean cumulative score, follow-up period (day 31 to day 54, post treatment): after end of treatment on day 30
[2] = system: EAE; details: administered at the same time the animals were immunized; cited from earlier work
[3] = system: NF-κB; test: LPS induced inflammation in mice, activated NF-κB in spleen cell nuclei; assay type: in vivo, ICR mice; details: about 40 mg/kg i.p. 24 hours before and 1 hour after LPS; spleens 1.5 hours after LPS
Description: The capacity of selected compounds to treat LPS induced inflammation in mice was examined by a protocol similar to the protocol described above. Five groups of three ICR mice weighing about 30 g were each treated by intraperitoneal injection with 120 μL vehicle (30% sulfobutylether-cyclodextrin in water), androst-5-ene-3α,7β,16α,17β-tetrol in vehicle, androst-5-ene-3β,4β,16α,17β-tetrol in vehicle or 4β-acetoxyandrost-5-ene-3β,16α,17β-triol in vehicle. All drug and vehicle formulations were solutions, not suspensions. The sulfobutylether-cyclodextrin was obtained commercially (Cydex Pharmaceuticals, Inc., Lexena, Kans.). There were two vehicle control groups one group received vehicle alone and the other received vehicle plus LPS. […] Drug was administered at about 40 mg/kg (1.2 mg drug/animal for each administration of the drugs). Spleens were harvested from the animals at 1.5 hours after injection of LPS and spleen cells were lysed and assayed for activated NF-κB by isolating nuclei from spleen cells and measuring NF-κB from the lysed nuclei. […] The level of activated NF-κB in spleen cells from the animals that were treated with vehicle and no LPS, was essentially the same as the activated NF-κB in spleen cells from drug treated animals.

[4] = system: MG-63 cells; test: Reversal of dexamethasone effects in MG-63 osteoblast cells; assay type: cell-based, human
Description: The capacity of 17α-ethynyl-5-androstene-3β,7β,17β-triol to reverse adverse effects of glucocorticoids in bone growth was shown in the human MG-63 osteosarcoma cell line. MG-63 cells are osteoblasts, which are cells that mediate bone growth. This cell line has been used extensively to study bone biology and to characterize the biological activity of compounds for treatment of bone loss conditions (e.g., B. D. Boyan et al., J. Biol. Chem., 264(20):11879-11886, 1989; L. C. Hofbauer et al., Endocrinology, 140(10):4382-4389, 1999). Adverse toxicities associated with elevated glucocorticoid levels include a decrease in the production of IL-6 and IL-8 by osteoblasts, including the MG-63 cell line, and an increase in the expression of the 11β-hydroxysteroid dehydrogenase type 1 enzyme (11β-HSD). Increased 11β-hydroxysteroid dehydrogenase type 1 enzyme results in increased levels of endogenous glucocorticoid activity by converting endogenous cortisone to the active cortisol, which inhibits bone growth. The 11β-HSD enzyme is expressed in liver, adipose tissue, brain and bone tissues. Cortisol generated by 11β-HSD-1 contributes to osteoporosis and disorders such as stroke, neuron death, depression and Parkinson Disease. Decreases in IL-6, IL-8 and osteoprotegerin are associated with decreased bone growth by osteoblasts.

[5] = system: osteoprotegerin; test: Osteoprotegerin levels in mice treated daily with dexamethasone; assay type: in vivo
Description: Osteoprotegerin levels in mice that were treated with vehicle and dexamethasone at 10 μg/day (positive control group) had 3.3 pmol/L osteoprotegerin, while animals treated with vehicle, dexamethasone and 17α-ethynyl-5-androstene-3β,7β,17β-triol at 4 mg/kg/day had 6.4 pmol/L osteoprotegerin (p<0.05).

[6] = system: NF-κB; test: Kinetic analysis of NF-kB inhibition in vivo after LPS, ELISA of NF-κB in spleen cell nuclei; set-up: species or system mice; details: about 40 mg/kg i.p. 24 hours before LPS
Description: Kinetic analysis of NF-kB inhibition in vivo. […] In this study, mice were treated with 17α-ethynylandrost-5-ene-3β,7β,17β-triol (about 40 mg/kg, about 1.2 mg/animal) by intraperitoneal injection of a solution (not a suspension) of the compound in vehicle (120 μL vehicle; 30% sulfobutylether-cyclodextrin in water). The drug was injected 24 hours before intraperitoneal injection of bacterial LPS (about an LD50/24). The study used two groups of 12 animals, vehicle control or drug administered 24 hours before LPS challenge. Spleens were harvested from 3 animals from both groups just before LPS challenge and at 1.5, 2.0 and 2.5 hours after administration of LPS. Spleen cells were harvested and the level of activated NF-κB was measured by assay of NF-κB in nuclei.
Maximum NF-κB activation after LPS administration occurred at 1.5 hours in the vehicle controls, which was 4-fold increased over the pre-LPS level of activated NF-κB. The values for the vehicle control and drug treated animals are relative optical density units from ELISA measurement of NF-κB in nuclei from spleen cells.

[7] = system: popliteal lymph node cells; test: reporter antigen popliteal lymph node (PLN) assay, immune suppression; assay type: in vivo, BALB/C mice; details: 0.1 and 1 mg/day oral gavage
Description: Analysis of immune suppression. Glucocorticoid steroids such as dexamethasone, prednisolone or hydrocortisone are typically immune suppressive and have significant toxicities associated with their use. Immune suppression was examined in a reporter antigen popliteal lymph node assay in mice essentially as previously described (C. Goebel et al., Inflamm. Res., 45(Suppl. 2):S85-S90, 1996; R. Pieters et al., Environmental Health Perspectives 107(Suppl. 5):673-677, 1999). […] In this protocol, the vehicle was 0.1% carboxymethylcellulose, 0.9% saline, 2% tween 80 and 0.05% phenol, which contained 17α-ethynylandrost-5-ene-3β,7β,17β-triol in suspension in drug treated animals. Assessment of activity included (1) measuring suppression of numbers of total lymphocytes, antigen specific IgM, IgG1 and IgG2a antibody secreting cells (ASC) (ELISPOT assay) in popliteal lymph node cells; (2) analysis of cell surface marker (CD4, CD8, CD19, F480, CD80, CD86) expression by flow cytometry of living cells in suspension; and (3) IL-4, TNFα and IFNγ production by lymphocytes in vitro (ELISA).
Groups (n=5 per group) of specific pathogen free BALB/C mice were used. […] The results were analyzed by two-tailed Student's t-test with equal variance. […] Single cell suspensions were prepared, resuspended in 1 mL PBS-BSA (1%) and counted. Cell numbers, IL-4, IL-5 and IFNγ were measured.

[8] = compound at 10 nM, 30 nM dexamethasone

Cc1cc(C)c(/C=C2\C(=O)Nc3ccccc32)[nH]1 [SU5416, Z-3-[(2,4-dimethylpyrrol-5-yl)methylidenyl]-2-indolinone, reference compound]
course of EAE compared to vehicle-treated mice [1]: ineffective | efficacy in EAE [2]: effective

CC(=O)O[C@@H]1C2=CC[C@H]3[C@@H]4C[C@@H](O)[C@H](O)[C@@]4(C)CC[C@@H]3[C@@]2(C)CC[C@@H]1O [4β-acetoxyandrost-5-ene-3β,16α,17β-triol]
decrease of the level of NF-κB activation compared to the LPS+vehicle control group [3]: about 50%

C[C@]12CC[C@H]3[C@@H](CC=C4[C@@H](O)[C@@H](O)CC[C@@]43C)[C@@H]1C[C@@H](O)[C@@H]2O [androst-5-ene-3β,4β,16α,17β-tetrol]
decrease of the level of NF-κB activation compared to the LPS+vehicle control group [3]: about 50%

CC12CCC(O)CC1=CC(O)C1C2CCC2(C)C(O)C(O)CC12 (stereo not drawn) [5-androstene-3β,7β,16α,17β-triol]
reversal of the decrease in osteoprotegerin synthesis by MG-63 cells ([4]; compound at 0.1 μM, 30 nM dexamethasone): normal osteoprotegerin levels

C[C@]12CC[C@H]3[C@@H](CC=C4C[C@](O)(C(F)(F)F)CC[C@@]43C)[C@@H]1CC[C@@H]2O [3α-trifluoromethylandrost-5-ene-3β,17β-diol]
cumulative incidence of EAE or lethality [1]: none of these 3 compounds significantly influenced | course of EAE compared to vehicle-treated mice [1]: powerful anti-inflammatory properties | mean cumulative score, follow-up period (day 31 to day 54, post treatment) [1]: 10.8±10.3

C[C@]12CC[C@H]3[C@@H]([C@@H](O)C=C4C[C@@H](O)CC[C@@]43C)[C@@H]1C[C@@H](O)[C@@H]2O [3β,7β,16α,17β-tetrahydroxyandrost-5-ene]
cumulative incidence of EAE or lethality [1]: none of these 3 compounds significantly influenced | course of EAE compared to vehicle-treated mice ([1]; listed as androst-5-ene-3β,7β,16α,17β-tetrol): powerful anti-inflammatory properties

C[C@@H]1C[C@H]2[C@@H]3CCC4=CC(=O)C=C[C@]4(C)[C@@]3(F)[C@@H](O)C[C@]2(C)[C@@]1(O)C(=O)CO [dexamethasone, reference compound]
osteoprotegerin levels in mice ([5]; vehicle and dexamethasone at 10 μg/day for 23 days (positive control group)): 3.3 pmol/L

C[C@]12CC[C@H]3[C@@H]([C@H](O)C=C4C[C@@H](O)CC[C@@]43C)[C@@H]1C[C@@H](O)[C@@H]2O [3β,7α,16α,17β-tetrahydroxyandrost-5-ene]
reversal of the decrease in osteoprotegerin synthesis by MG-63 cells [4, 8]: near normal osteoprotegerin levels

C#C[C@]1(O)CC[C@H]2[C@@H]3[C@@H](O)C=C4C[C@@H](O)CC[C@]4(C)[C@H]3CC[C@@]21C [17α-ethynylandrost-5-ene-3β,7β,17β-triol]
NF-κB in nuclei from spleen cells ([6]; 0 hours (just before LPS)): 22 relative optical density units | NF-κB in nuclei from spleen cells ([6]; 1.5 hours after LPS): 2 relative optical density units | NF-κB in nuclei from spleen cells ([6]; 2.0 hours after LPS): 7 relative optical density units | NF-κB in nuclei from spleen cells ([6]; 2.5 hours after LPS): 9 relative optical density units | immune suppression in PLN assay [7]: not immune suppressive, but was immune enhancing | reversal of the decrease in osteoprotegerin synthesis by MG-63 cells ([4]; compound at 1 nM, 7 hours with 30 nM dexamethasone): completely reversed | osteoprotegerin levels in mice ([5]; vehicle, dexamethasone 10 μg/day and compound at 4 mg/kg/day, 23 days, p<0.05): 6.4 pmol/L

C#C[C@@]1(O)CC[C@H]2[C@@H]3[C@@H](O)C=C4C[C@@H](O)CC[C@]4(C)[C@H]3CC[C@@]21C [17β-ethynylandrost-5-ene-3β,7β,17α-triol]
course of EAE compared to vehicle-treated mice [1]: powerful anti-inflammatory properties | mean cumulative score, follow-up period (day 31 to day 54, post treatment) [1]: 18.4±20.6

C[C@]12CC[C@H]3[C@@H]([C@@H](O)C=C4C[C@H](O)CC[C@@]43C)[C@@H]1C[C@@H](O)[C@@H]2O [3α,7β,16α,17β-tetrahydroxyandrost-5-ene]
decrease of the level of NF-κB activation compared to the LPS+vehicle control group [3]: about 50% | reversal of the decrease in osteoprotegerin synthesis by MG-63 cells [4, 8]: normal osteoprotegerin levels

C[C@]12CC[C@H](O)CC1=CC[C@@H]1[C@@H]2CC[C@@]2(C)[C@H]1CC[C@@]2(O)C(F)(F)F [17α-trifluoromethylandrost-5-ene-3β,17β-diol]
cumulative incidence of EAE or lethality [1]: none of these 3 compounds significantly influenced | course of EAE compared to vehicle-treated mice [1]: powerful anti-inflammatory properties
